{
  "source": "patent US20100305098A1",
  "about": "“METHODS OF USE” (priority 2007, published 2010)",
  "key": {"AT1": {"biological_target": "T1, AT1 (Homo sapiens, UniProt P30556)", "T1 construct": "purchased Millipore (outsourced screen)", "T1 sequence (P30556 whole entry)": "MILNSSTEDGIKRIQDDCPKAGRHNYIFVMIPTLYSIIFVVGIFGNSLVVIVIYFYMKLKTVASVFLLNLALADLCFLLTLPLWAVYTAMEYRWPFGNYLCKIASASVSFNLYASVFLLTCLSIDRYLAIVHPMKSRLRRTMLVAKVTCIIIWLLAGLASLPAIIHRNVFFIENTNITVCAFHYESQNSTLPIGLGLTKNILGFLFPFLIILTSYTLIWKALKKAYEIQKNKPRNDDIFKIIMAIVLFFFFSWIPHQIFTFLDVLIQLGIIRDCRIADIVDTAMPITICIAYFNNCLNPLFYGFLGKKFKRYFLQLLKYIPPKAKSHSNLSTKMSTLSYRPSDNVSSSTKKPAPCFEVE", "assay": "FLIPR functional screen", "format": "cell-based", "settings": "antagonist mode"}, "PRP": {"biological_target": "T2, PRP (Homo sapiens, UniProt P49683)", "T2 construct": "Millipore", "T2 sequence (P49683 whole entry)": "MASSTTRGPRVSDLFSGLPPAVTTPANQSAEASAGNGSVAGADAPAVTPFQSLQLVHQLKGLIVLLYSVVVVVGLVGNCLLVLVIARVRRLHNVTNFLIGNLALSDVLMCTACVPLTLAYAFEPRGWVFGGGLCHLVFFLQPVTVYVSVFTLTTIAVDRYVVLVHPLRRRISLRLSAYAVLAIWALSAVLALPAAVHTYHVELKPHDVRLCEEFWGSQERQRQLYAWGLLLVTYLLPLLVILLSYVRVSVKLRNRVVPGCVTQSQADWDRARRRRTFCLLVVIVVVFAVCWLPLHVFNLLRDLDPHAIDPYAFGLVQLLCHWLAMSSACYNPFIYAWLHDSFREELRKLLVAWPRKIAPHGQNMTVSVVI", "assay": "FLIPR functional screen", "format": "cell-based", "settings": "antagonist mode"}, "Mouse CD4+ T cells": {"tested_on": "Mouse CD4+ T cells", "assay": "IL-23 induced Th17 expansion", "format": "cell-based", "settings": "120 h, anti-TCR/anti-CD28 mAb and IL-23 (30 ng/ml), 5 days, FACS, read-out: IC50 for reduction of IL-23-induced Th17-producing cells", "protocol": "IL-23 induced Th17 expansion. CD4^+ T cells were isolated from C57BL/6 mice and activated with anti-TCR (1 μg/ml plate-bound) and anti-CD28 (2 μg/ml soluble) with or without IL-23 (30 ng/ml) for 5 days. IL-17 producing cells were analyzed by IL-17 intracellular staining as described by manufacture (BD).\nThe effect of ER-819924-01 on IL-23-induced Th17 expansion was studied in vitro (FIG. 9). Mouse CD4^+ T cells were cultured with anti-TCR/anti-CD28 mAb and IL-23 (30 ng/ml) in the presence or absence of ER-819924-01 or anti-PGE2 Ab for 5 days. IL-17 producing T cells were analyzed by FACS of intracellular staining. ER-819924-01 reduced the number of IL-23-induced Th17-producing cells with an IC50 value of ˜10-100 nM."}, "M4": {"biological_target": "T3, M4 (Homo sapiens, UniProt P08173)", "T3 construct": "Millipore", "assay": "FLIPR functional screen", "format": "cell-based", "settings": "antagonist mode"}, "OX2": {"biological_target": "T4, OX2 (Homo sapiens, UniProt O43614)", "T4 construct": "Millipore", "assay": "FLIPR functional screen", "format": "cell-based", "settings": "antagonist mode"}, "CYSLT2": {"biological_target": "T5, CYSLT2 (Homo sapiens, UniProt Q9NS75)", "T5 construct": "Millipore", "T5 sequence (Q9NS75 whole entry, species assumed)": "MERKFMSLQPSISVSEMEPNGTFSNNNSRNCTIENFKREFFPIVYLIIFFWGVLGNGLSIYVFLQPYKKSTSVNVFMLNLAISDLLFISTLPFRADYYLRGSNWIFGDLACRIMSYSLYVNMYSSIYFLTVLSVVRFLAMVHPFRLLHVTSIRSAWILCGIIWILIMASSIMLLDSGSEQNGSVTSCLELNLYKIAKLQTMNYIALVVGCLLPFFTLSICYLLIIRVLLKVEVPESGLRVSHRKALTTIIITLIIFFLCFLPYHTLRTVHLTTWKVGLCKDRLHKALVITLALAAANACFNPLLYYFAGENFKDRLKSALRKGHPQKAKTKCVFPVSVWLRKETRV", "assay": "FLIPR functional screen", "format": "cell-based", "settings": "antagonist mode"}, "CHEMR23": {"biological_target": "T6, CHEMR23 (Homo sapiens, UniProt Q99788)", "T6 construct": "Millipore", "assay": "FLIPR functional screen", "format": "cell-based", "settings": "antagonist mode"}, "S1P5": {"biological_target": "T7, S1P5 (Homo sapiens, UniProt Q9H228)", "T7 construct": "Millipore", "T7 sequence (Q9H228 whole entry, species assumed)": "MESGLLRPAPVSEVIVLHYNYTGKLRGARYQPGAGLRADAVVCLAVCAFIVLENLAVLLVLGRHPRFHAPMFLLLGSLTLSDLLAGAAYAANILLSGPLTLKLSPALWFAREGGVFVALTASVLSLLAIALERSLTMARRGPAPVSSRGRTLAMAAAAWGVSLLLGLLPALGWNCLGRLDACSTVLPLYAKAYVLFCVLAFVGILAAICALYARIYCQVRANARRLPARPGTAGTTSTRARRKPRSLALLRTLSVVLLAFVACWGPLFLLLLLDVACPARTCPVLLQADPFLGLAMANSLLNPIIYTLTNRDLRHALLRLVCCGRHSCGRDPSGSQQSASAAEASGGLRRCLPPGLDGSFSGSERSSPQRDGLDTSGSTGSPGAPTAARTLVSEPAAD", "assay": "FLIPR functional screen", "format": "cell-based", "settings": "antagonist mode"}, "C5AR": {"biological_target": "T8, C5AR (Homo sapiens, UniProt P21730)", "T8 construct": "Millipore", "assay": "FLIPR functional screen", "format": "cell-based", "settings": "antagonist mode"}, "IP1": {"biological_target": "T9, IP1 (Homo sapiens, UniProt P43119)", "T9 construct": "Millipore", "T9 sequence (P43119 whole entry)": "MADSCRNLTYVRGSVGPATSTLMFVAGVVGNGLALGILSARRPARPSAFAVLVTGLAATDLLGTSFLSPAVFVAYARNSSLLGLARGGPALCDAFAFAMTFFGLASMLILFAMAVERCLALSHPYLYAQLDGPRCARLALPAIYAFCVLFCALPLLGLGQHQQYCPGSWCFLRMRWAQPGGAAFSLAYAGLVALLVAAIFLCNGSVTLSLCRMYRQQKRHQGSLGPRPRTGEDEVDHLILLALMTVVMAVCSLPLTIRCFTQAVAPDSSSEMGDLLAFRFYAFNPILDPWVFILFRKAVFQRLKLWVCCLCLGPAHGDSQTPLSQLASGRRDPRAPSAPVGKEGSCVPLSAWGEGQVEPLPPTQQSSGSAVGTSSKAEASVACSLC", "assay": "FLIPR functional screen", "format": "cell-based", "settings": "antagonist mode"}, "A1": {"biological_target": "T10, A1 (Homo sapiens, UniProt P30542)", "T10 construct": "purchased Millipore (outsourced screen)", "T10 sequence (P30542 whole entry)": "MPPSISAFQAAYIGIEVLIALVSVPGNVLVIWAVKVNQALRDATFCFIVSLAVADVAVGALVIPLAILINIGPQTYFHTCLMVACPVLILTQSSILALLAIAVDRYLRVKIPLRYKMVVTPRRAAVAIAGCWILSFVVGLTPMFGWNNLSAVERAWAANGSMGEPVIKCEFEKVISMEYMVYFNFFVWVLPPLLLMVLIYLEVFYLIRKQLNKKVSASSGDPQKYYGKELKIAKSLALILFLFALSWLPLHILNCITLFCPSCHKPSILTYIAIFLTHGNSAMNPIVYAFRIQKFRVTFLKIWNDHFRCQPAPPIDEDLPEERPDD", "assay": "FLIPR functional screen", "format": "cell-based", "settings": "antagonist mode"}, "CIA mouse": {"tested_on": "CIA mouse", "assay": "Suppression of arthritis development in CIA", "format": "in vivo", "excerpt": "Suppression of arthritis development in CIA. DBA1/J mice were immunized with bCII/CFA at day 0 then boosted at day 21 with bCII/IFA. Arthritis development was monitored over the course of study. The arthritis score is as follows: 0=normal paw, score of 1=1-2 digit inflamed paws; score of 2=3 digits or 1-2 digit+wrist or ankle inflamed, score of 3=hand+more than 2 digits inflamed; and score of 4=multiple digits (3-4)+important wrist or ankle inflammation.\n(A) Partial therapeutic evaluation of compounds. Active compound was given by oral dosing once daily at the dose indicated from day 20 after induction of antibodies to collagen II but before disease development. (B) Full therapeutic evaluation of compound. Active compound was given after disease was developed (from day 7 after the second immunization). (C) X-ray analysis of mouse paws from full therapeutic CIA study. X-ray score is the index of measurement of combination of osteopenia, bone erosion and new bone formation. (D) Representative X-ray radiographs.\nCollagen induced arthritis model. Male DBA/1 mice were immunized intradermally at the base of the tail with 0.1 ml emulsion, containing 150 μg bovine type II collagen emulsified in Freund's complete adjuvant. Three weeks after 1st immunization, all mice were boosted with bovine type II collagen emulsified in Freund's incomplete adjuvant. The severity of arthritic symptoms in the paws of each mouse was graded according to Wood et al. in accordance with known techniques.\nSeveral studies were performed in the mouse CIA model to evaluate anti-arthritic effects of ER-819924-01. Initially ER-819924-01 was studied in a partial therapeutic dosing regimen in which compounds were orally administered daily from day 20 (i.e. after induction of pathogenic anti-type II collagen antibodies, but before arthritis development). Arthritis score (measured as an inflammatory response index of inflamed paw) and body weight were monitored over two weeks. […] We also studied ER-819924-01 in a full therapeutic dosing regimen in which compounds were dosed after the induction of disease."}, "CCR1": {"biological_target": "T11, CCR1 (Homo sapiens, UniProt P32246)", "T11 construct": "Millipore", "T11 sequence (P32246 whole entry, species assumed)": "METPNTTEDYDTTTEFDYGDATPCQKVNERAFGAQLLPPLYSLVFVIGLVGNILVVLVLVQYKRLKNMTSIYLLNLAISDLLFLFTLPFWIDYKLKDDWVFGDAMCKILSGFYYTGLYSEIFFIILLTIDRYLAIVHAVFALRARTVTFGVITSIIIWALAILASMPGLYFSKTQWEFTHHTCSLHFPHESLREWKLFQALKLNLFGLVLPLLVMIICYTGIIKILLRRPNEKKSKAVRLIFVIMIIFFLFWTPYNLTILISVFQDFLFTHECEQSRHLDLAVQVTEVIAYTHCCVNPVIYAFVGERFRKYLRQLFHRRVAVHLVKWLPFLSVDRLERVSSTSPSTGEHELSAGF", "assay": "FLIPR functional screen", "format": "cell-based", "settings": "antagonist mode"}, "GPR103": {"biological_target": "T12, GPR103 (Homo sapiens, UniProt Q96P65)", "T12 construct": "Millipore", "assay": "FLIPR functional screen", "format": "cell-based", "settings": "antagonist mode"}, "GAL1": {"biological_target": "T13, GAL1 (Homo sapiens, UniProt P47211)", "T13 construct": "Millipore", "T13 sequence (P47211 whole entry)": "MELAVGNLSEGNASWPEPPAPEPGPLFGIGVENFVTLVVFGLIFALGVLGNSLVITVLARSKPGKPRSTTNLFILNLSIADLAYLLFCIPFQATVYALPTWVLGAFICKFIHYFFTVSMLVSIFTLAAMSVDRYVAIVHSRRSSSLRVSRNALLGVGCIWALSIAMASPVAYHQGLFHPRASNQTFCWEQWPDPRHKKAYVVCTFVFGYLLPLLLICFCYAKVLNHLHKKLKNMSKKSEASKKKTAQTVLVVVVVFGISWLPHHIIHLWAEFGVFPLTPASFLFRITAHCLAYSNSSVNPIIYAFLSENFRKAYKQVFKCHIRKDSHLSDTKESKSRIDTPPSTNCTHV", "assay": "FLIPR functional screen", "format": "cell-based", "settings": "antagonist mode"}, "CCR3": {"biological_target": "T14, CCR3 (Homo sapiens, UniProt P51677)", "T14 construct": "Millipore", "T14 sequence (P51677 whole entry, species assumed)": "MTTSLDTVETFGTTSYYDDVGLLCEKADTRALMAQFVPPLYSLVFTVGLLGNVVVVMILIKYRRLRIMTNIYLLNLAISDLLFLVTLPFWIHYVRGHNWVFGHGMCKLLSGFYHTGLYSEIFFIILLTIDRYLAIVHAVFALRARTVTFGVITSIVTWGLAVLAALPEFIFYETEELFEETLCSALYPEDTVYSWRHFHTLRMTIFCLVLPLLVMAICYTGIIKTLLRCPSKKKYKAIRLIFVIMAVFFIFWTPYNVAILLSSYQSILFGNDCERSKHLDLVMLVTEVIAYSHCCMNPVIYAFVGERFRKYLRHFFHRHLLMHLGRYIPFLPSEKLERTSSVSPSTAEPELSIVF", "assay": "FLIPR functional screen", "format": "cell-based", "settings": "antagonist mode"}, "EP3": {"biological_target": "T15, EP3 (Homo sapiens, UniProt P43115)", "T15 construct": "Millipore", "assay": "FLIPR functional screen", "format": "cell-based", "settings": "antagonist mode"}, "SECRETIN": {"biological_target": "T16, SECRETIN (Homo sapiens, UniProt P47872)", "T16 construct": "Millipore", "assay": "FLIPR functional screen", "format": "cell-based", "settings": "antagonist mode"}, "EP2": {"biological_target": "T17, EP2 (Homo sapiens, UniProt P43116)", "T17 construct": "Millipore", "T17 sequence (P43116 whole entry)": "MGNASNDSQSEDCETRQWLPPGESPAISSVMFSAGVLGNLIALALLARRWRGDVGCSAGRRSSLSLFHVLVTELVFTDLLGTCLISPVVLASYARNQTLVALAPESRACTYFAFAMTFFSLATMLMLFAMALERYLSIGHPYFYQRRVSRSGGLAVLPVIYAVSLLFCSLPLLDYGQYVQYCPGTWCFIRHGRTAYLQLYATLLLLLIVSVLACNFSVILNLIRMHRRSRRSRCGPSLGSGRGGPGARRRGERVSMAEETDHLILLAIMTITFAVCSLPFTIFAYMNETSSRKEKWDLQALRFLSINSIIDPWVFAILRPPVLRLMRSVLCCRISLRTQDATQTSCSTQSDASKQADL", "assay": "FLIPR functional screen", "format": "cell-based", "settings": "antagonist mode"}, "BLT1": {"biological_target": "T18, BLT1 (Homo sapiens, UniProt Q15722)", "T18 construct": "Millipore", "T18 sequence (Q15722 whole entry, species assumed)": "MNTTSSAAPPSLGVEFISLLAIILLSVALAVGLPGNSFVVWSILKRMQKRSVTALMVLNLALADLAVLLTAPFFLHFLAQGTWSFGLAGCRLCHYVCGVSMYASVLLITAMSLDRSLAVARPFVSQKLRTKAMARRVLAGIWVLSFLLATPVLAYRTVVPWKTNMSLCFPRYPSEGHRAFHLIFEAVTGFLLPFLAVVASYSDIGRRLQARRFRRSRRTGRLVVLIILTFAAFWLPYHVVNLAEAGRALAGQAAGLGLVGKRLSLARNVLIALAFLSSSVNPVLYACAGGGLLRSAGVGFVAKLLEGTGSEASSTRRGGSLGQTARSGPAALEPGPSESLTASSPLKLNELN", "assay": "FLIPR functional screen", "format": "cell-based", "settings": "antagonist mode"}, "PAR2": {"biological_target": "T19, PAR2 (Homo sapiens, UniProt P55085)", "T19 construct": "Millipore", "assay": "FLIPR functional screen", "format": "cell-based", "settings": "antagonist mode"}, "CXCR4": {"biological_target": "T20, CXCR4 (Homo sapiens, UniProt P61073)", "T20 construct": "Millipore", "T20 sequence (P61073 whole entry, species assumed)": "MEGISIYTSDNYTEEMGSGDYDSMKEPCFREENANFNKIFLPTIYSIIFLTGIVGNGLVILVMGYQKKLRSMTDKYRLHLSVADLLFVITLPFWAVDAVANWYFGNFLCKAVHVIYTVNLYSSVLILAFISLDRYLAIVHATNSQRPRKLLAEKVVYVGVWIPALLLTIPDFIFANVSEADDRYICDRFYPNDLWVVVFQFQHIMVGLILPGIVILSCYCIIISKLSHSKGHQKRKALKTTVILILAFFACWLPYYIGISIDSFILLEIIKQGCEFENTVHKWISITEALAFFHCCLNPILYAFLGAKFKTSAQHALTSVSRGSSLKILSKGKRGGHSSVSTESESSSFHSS", "assay": "FLIPR functional screen", "format": "cell-based", "settings": "antagonist mode"}, "EP1": {"biological_target": "T21, EP1 (Homo sapiens, UniProt P34995)", "T21 construct": "Millipore", "T21 sequence (P34995 whole entry)": "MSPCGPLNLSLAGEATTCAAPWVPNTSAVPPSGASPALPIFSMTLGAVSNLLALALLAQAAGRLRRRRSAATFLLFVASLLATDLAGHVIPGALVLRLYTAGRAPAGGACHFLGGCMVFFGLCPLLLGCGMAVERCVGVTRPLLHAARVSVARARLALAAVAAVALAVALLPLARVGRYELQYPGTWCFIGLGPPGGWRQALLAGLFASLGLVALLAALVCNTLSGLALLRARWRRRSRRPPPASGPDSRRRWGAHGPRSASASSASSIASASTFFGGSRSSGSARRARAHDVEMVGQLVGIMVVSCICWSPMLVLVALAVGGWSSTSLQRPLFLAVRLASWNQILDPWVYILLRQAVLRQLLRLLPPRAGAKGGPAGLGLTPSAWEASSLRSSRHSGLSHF", "assay": "FLIPR functional screen", "format": "cell-based", "settings": "antagonist mode"}, "GIPR": {"biological_target": "T22, GIPR (Homo sapiens, UniProt P48546)", "T22 construct": "Millipore", "assay": "FLIPR functional screen", "format": "cell-based", "settings": "antagonist mode"}, "CAS": {"biological_target": "T23, CAS (Homo sapiens, UniProt P41180)", "T23 construct": "Millipore", "assay": "FLIPR functional screen", "format": "cell-based", "settings": "antagonist mode"}},
  "note": "pIC50: −log10 of the molar value.",
  "data": [
    {"compound": "CCN1C(=O)N2Cc3cc(OC)cc(OC)c3[C@@H](C)C=C2C12CCN(Cc1cccn1C)CC2", "note": "[ER-819924-01]", "values": [
      {"measurement": "inhibition at 1 µM", "setting": "AT1", "result": -1.5, "unit": "%"},
      {"measurement": "inhibition at 1 µM", "setting": "PRP", "result": 5.4, "unit": "%"},
      {"measurement": "pIC50", "setting": "Mouse CD4+ T cells", "result": "7.00 to 8.00"},
      {"measurement": "inhibition at 1 µM", "setting": "M4", "result": 10.5, "unit": "%"},
      {"measurement": "inhibition at 1 µM", "setting": "OX2", "result": 8.8, "unit": "%"},
      {"measurement": "inhibition at 1 µM", "setting": "CYSLT2", "result": 4.5, "unit": "%"},
      {"measurement": "inhibition at 1 µM", "setting": "CHEMR23", "result": -3.2, "unit": "%"},
      {"measurement": "inhibition at 1 µM", "setting": "S1P5", "result": -7.4, "unit": "%"},
      {"measurement": "inhibition at 1 µM", "setting": "C5AR", "result": 6.2, "unit": "%"},
      {"measurement": "inhibition at 1 µM", "setting": "IP1", "result": 9.8, "unit": "%"},
      {"measurement": "inhibition at 1 µM", "setting": "A1", "result": 2.2, "unit": "%"},
      {"measurement": "X-ray score", "setting": "CIA mouse; 30 mg/kg, separate study", "result": "significantly improved X-ray score"},
      {"measurement": "ED50", "setting": "CIA mouse; Mus musculus, 480 h, partial therapeutic dosing, oral daily from day 20", "result": "~10", "unit": "mg/kg"},
      {"measurement": "arthritis development under full therapeutic dosing", "setting": "CIA mouse; dosed after induction of disease, 10 mg/kg", "result": "effectively prevented further arthritis development"},
      {"measurement": "inhibition at 1 µM", "setting": "CCR1", "result": -8.2, "unit": "%"},
      {"measurement": "inhibition at 1 µM", "setting": "GPR103", "result": 0.4, "unit": "%"},
      {"measurement": "inhibition at 1 µM", "setting": "GAL1", "result": 9.1, "unit": "%"},
      {"measurement": "inhibition at 1 µM", "setting": "CCR3", "result": -5.6, "unit": "%"},
      {"measurement": "inhibition at 1 µM", "setting": "EP3", "result": 7.8, "unit": "%"},
      {"measurement": "inhibition at 1 µM", "setting": "SECRETIN", "result": 11.3, "unit": "%"},
      {"measurement": "inhibition at 1 µM", "setting": "EP2", "result": 4.2, "unit": "%"},
      {"measurement": "inhibition at 1 µM", "setting": "BLT1", "result": 2.2, "unit": "%"},
      {"measurement": "inhibition at 1 µM", "setting": "PAR2", "result": -0.8, "unit": "%"},
      {"measurement": "inhibition at 1 µM", "setting": "CXCR4", "result": -11.8, "unit": "%"},
      {"measurement": "inhibition at 1 µM", "setting": "EP1", "result": -2, "unit": "%"},
      {"measurement": "inhibition at 1 µM", "setting": "GIPR", "result": -14.9, "unit": "%"},
      {"measurement": "inhibition at 1 µM", "setting": "CAS", "result": 7.2, "unit": "%"}
    ]}
  ]
}
